The values below are quoted from earlier work in publication PMC9788431, “Combination of Docking-Based and Pharmacophore-Based Virtual Screening Identifies Novel Agonists That Target the Urotensin Receptor” (Molecules, 2022).

In the series the target is T1, UT receptor (Homo sapiens, UniProt Q9UKP6).
T1 construct: SNAP-tag; expressed in transfected cells; host or cells: 293A8 (HEK293A stably transfected with the UT receptor); inferred, the calcium-assay paragraph names no cells
T1 sequence (Q9UKP6 1-389): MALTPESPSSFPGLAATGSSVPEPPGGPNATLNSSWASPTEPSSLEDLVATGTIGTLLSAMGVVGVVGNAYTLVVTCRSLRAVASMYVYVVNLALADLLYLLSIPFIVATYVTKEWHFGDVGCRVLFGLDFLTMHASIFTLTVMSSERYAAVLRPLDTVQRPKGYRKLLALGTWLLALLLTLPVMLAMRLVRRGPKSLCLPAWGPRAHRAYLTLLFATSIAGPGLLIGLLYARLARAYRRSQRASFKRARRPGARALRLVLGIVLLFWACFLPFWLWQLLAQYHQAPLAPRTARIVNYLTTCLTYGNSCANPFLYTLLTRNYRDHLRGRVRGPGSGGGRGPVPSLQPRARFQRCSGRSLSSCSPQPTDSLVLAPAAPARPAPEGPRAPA
To be noted: agonist; Table S1 benchmarking ligands; ref ChEMBL database and others; cited from earlier work.

SMILES strings stand for the structures. “And” between values parts separate entries of the source, which are not always exact repeats. Identical values can stand only once. Non-standard residues stand in square brackets, D forms with d. Residues, ends and D or L forms follow the SMILES beside them.

As for `CC(C)[C@H](NC(=O)[C@H](CS)NC(=O)[C@H](Cc1ccc(O)cc1)NC(=O)[C@H](CCCCN)NC(=O)[C@H](Cc1c[nH]c2ccccc12)NC(=O)[C@H](Cc1ccccc1)NC(=O)[C@@H](N)CS)C(=O)O` [CHEMBL53181] (H-CFWKYCV-OH), the EC50 (as a rule, the concentration giving half of the maximal effect) is 0.0018 µM. In the case of `CN(C)CCC(OC(=O)Nc1ccc(C(F)(F)F)cc1)c1ccc(Cl)cc1` (centres unmarked) [CHEMBL203051], the EC50 was 0.251 µM.

With `CN(C)CCC(NC(=O)c1ccc(Oc2ccccc2)cc1)c1ccc(Cl)cc1` (centres unmarked) [CHEMBL203626], the concentration for a half-maximal effect (EC50) is 0.0661 µM. Turning to `CN(C)CCC(OC(=O)Nc1ccc2ccccc2c1)c1ccc(Cl)cc1` (centres unmarked) [CHEMBL203937], the 50% effective concentration (EC50) was 0.525 µM. As for `CN(C)CCC(NC(=O)c1ccc(C(F)(F)F)cc1)c1ccc(Cl)cc1` (centres unmarked) [CHEMBL204988], the 50% effective concentration (EC50) is 0.0776 µM.

For `CN(C)CCC(NC(=O)Nc1ccc(C(C)(C)C)cc1)c1ccc(Cl)cc1` (centres unmarked) [CHEMBL205681], the EC50 is 0.275 µM. Turning to `CN(C)CCC(OC(=O)c1ccc(-c2ccccc2)cc1)c1ccc(Cl)cc1` (centres unmarked) [CHEMBL205991], the concentration for a half-maximal effect (EC50) was 0.525 µM. Turning to `CN(C)CCC(NC(=O)Nc1ccc2ccccc2c1)c1ccc(Cl)cc1` (centres unmarked) [CHEMBL206551], the concentration giving a half-maximal response (EC50) was 0.288 µM. In the case of `CN(C)CCC(NC(=O)Nc1ccc(-c2ccccc2)cc1)c1ccc(Cl)cc1` (centres unmarked) [CHEMBL206811], the concentration giving a half-maximal response (EC50) was 0.145 µM. Take `Cc1cc(C)c(C(=O)OC(CCN(C)C)c2ccc(Cl)cc2)cc1C` (centres unmarked) [CHEMBL206832]: the EC50 was 0.468 µM.

With `CN(C)CC[C@H](NC(=O)c1ccc2ccccc2c1)c1ccc(Cl)cc1` [CHEMBL207783], the EC50 is 0.407 µM. For the compound `CN(C)CC[C@H](NC(=O)c1ccc(-c2ccccc2)cc1)c1ccc(Cl)cc1` [CHEMBL207823], the EC50 was 0.0324 µM. As to `CC(C)[C@H](NC(=O)[C@H](CS)NC(=O)[C@H](Cc1ccc(O)cc1)NC(=O)[C@H](CCCCN)NC(=O)[C@H](Cc1c[nH]c2ccccc12)NC(=O)[C@H](Cc1ccccc1)NC(=O)[C@H](CS)NC(=O)[C@H](CC(=O)O)NC(=O)[C@H]1CCCN1)C(=O)O` [CHEMBL216349] (H-[dP]DCFWKYCV-OH), the concentration for a half-maximal effect (EC50) is 0.0036 µM. On to `CN(C)CCC(NC(=O)/C=C/c1ccc(C(F)(F)F)cc1)c1ccc(Cl)cc1` (centres unmarked) [CHEMBL228470], for which the EC50 is 0.129 µM. As to `CN(C)CCC(NC(=O)C#Cc1ccccc1)c1ccc(Cl)cc1` (centres unmarked) [CHEMBL228471], the EC50 is 0.398 µM.

`CN(C)CCC(NC(=O)CCc1ccccc1)c1ccc2ccccc2c1` (centres unmarked) [CHEMBL229709]: the EC50 was 0.603 µM. On to `CN(C)CCC(NC(=O)CCc1ccc(C(F)(F)F)cc1)c1ccc2ccccc2c1` (centres unmarked) [CHEMBL229710], for which the 50% effective concentration (EC50) is 0.372 µM. As for `CN(C)CCC(NC(=O)/C=C/c1ccc(C(F)(F)F)cc1)c1ccc2ccccc2c1` (centres unmarked) [CHEMBL229713], the EC50 is 0.135 µM. For the compound `COc1ccc(/C=C/C(=O)NC(CCN(C)C)c2ccc3ccccc3c2)cc1` (centres unmarked) [CHEMBL229714], the concentration giving a half-maximal response (EC50) is 0.38 µM. As to `CN(C)CCC(NC(=O)C#Cc1ccccc1)c1ccc2ccccc2c1` (centres unmarked) [CHEMBL229764], the 50% effective concentration (EC50) is 0.457 µM. For `Cc1ccc(C(CCN(C)C)NC(=O)/C=C/c2ccc(C(F)(F)F)cc2)cc1` (centres unmarked) [CHEMBL229923], the EC50 is 0.437 µM. With `NCCCC[C@H](NC(=O)[C@H](Cc1c[nH]c2ccccc12)NC(=O)[C@H](Cc1ccccc1)NC(=O)[C@@H](N)CS)C(=O)N[C@@H](Cc1ccc(O)cc1)C(=O)N[C@@H](CS)C(N)=O` [CHEMBL298803] (H-CFWKYC-NH2), the concentration for a half-maximal effect (EC50) was 0.0023 µM. For `CN(C)CCC(NC(=O)/C=C/c1ccccc1)c1ccc(Cl)cc1` (centres unmarked) [CHEMBL374817], the EC50 is 0.427 µM. With `Cc1cc2c(cc1C)C(=O)OC(CCN(C)C)(c1ccc(Cl)cc1)C2` (centres unmarked) [CHEMBL380346], the EC50 was 0.135 µM. For the compound `CN(C)CCC(OC(=O)Nc1ccc(Oc2ccccc2)cc1)c1ccc(Cl)cc1` (centres unmarked) [CHEMBL383326], the EC50 was 0.191 µM. With `CN(C)CCC(NC(=O)Nc1ccc(Oc2ccccc2)cc1)c1ccc(Cl)cc1` (centres unmarked) [CHEMBL383698], the EC50 was 0.11 µM.

As for `C[C@@H](O)[C@H](NC(=O)[C@@H](N)CCC(=O)O)C(=O)N1CCC[C@@H]1C(=O)N[C@@H](CC(=O)O)C(=O)N[C@@H](CS)C(=O)N[C@@H](Cc1ccccc1)C(=O)N[C@@H](Cc1c[nH]c2ccccc12)C(=O)N[C@@H](CCCCN)C(=O)N[C@@H](Cc1ccc(O)cc1)C(=O)N[C@@H](CS)C(=O)O` [CHEMBL385616] (H-ET[dP]DCFWKYC-OH), the EC50 is 0.0018 µM. On to `CC(C)[C@H](NC(=O)[C@H](CS)NC(=O)[C@H](Cc1ccc(O)cc1)NC(=O)[C@H](CCCCN)NC(=O)[C@@H](Cc1c[nH]c2ccccc12)NC(=O)[C@H](Cc1ccccc1)NC(=O)[C@H](CS)NC(=O)[C@H](CC(=O)O)NC(=O)[C@H]1CCCN1C(=O)[C@@H](NC(=O)[C@@H](N)CCC(=O)O)[C@@H](C)O)C(=O)O` [CHEMBL385962], for which the EC50 was 0.0038 µM.

Consider `COc1ccc(/C=C/C(=O)NC(CCN(C)C)c2ccc(Cl)cc2)cc1` (centres unmarked) [CHEMBL387661], for which the EC50 is 0.513 µM. In the case of `CN(C)CCC(NC(=O)/C=C/c1ccccc1)c1ccc2ccccc2c1` (centres unmarked) [CHEMBL387694], the EC50 is 0.589 µM.

As for `CN(C)CCC(NC(=O)Cc1ccc(C(F)(F)F)cc1)c1ccc2ccccc2c1` (centres unmarked) [CHEMBL390792], the EC50 was 0.575 µM. Take `CC(C)[C@H](NC(=O)[C@H](CS)NC(=O)[C@H](Cc1ccc(O)cc1)NC(=O)[C@H](CCCCN)NC(=O)[C@H](Cc1c[nH]c2ccccc12)NC(=O)[C@H](Cc1ccccc1)NC(=O)[C@H](CS)NC(=O)[C@H](CC(=O)O)NC(=O)[C@H]1CCCN1C(=O)[C@@H](NC(=O)[C@@H](N)CCC(=O)O)[C@@H](C)O)C(=O)O` [CHEMBL408106]: the EC50 is 0.0025 µM. Regarding `CC(C)[C@H](NC(=O)[C@H](CS)NC(=O)[C@H](Cc1ccc(O)cc1)NC(=O)[C@H](CCCCN)NC(=O)[C@H](Cc1c[nH]c2ccccc12)NC(=O)[C@H](CS)NC(=O)[C@H](CC(=O)O)NC(=O)[C@H]1CCCN1C(=O)[C@@H](NC(=O)[C@@H](N)CCC(=O)O)[C@@H](C)O)C(=O)O` [CHEMBL412753] (H-ET[dP]DCWKYCV-OH), the EC50 is 0.053 µM. Take `CC(C)[C@H](NC(=O)[C@H](CS)NC(=O)[C@H](Cc1ccc(O)cc1)NC(=O)[C@H](CCCCN)NC(=O)[C@H](Cc1c[nH]c2ccccc12)NC(=O)[C@H](Cc1ccccc1)NC(=O)[C@H](CS)NC(=O)[C@@H](N)CC(=O)O)C(=O)O` [CHEMBL414256] (H-DCFWKYCV-OH): the EC50 was 0.003 µM.

With `CN(C)CCC(NC(=O)Nc1ccc(C(F)(F)F)cc1)c1ccc(Cl)cc1` (centres unmarked) [CHEMBL425592], the EC50 was 0.117 µM. In the case of `CC(C)[C@H](NC(=O)[C@H](CS)NC(=O)[C@H](Cc1ccc(O)cc1)NC(=O)[C@H](CCCCN)NC(=O)[C@H](Cc1c[nH]c2ccccc12)NC(=O)[C@H](Cc1ccccc1)NC(=O)[C@H](CS)NC(=O)[C@H](CC(=O)O)NC(=O)[C@H]1CCCN1C(=O)[C@@H](N)[C@@H](C)O)C(=O)O` [CHEMBL427632] (H-T[dP]DCFWKYCV-OH), the EC50 is 0.0024 µM.

Take `CN(C)CCC1(c2ccc(Cl)cc2)Cc2ccccc2C(=O)O1` (centres unmarked) [CHEMBL535141]: the EC50 is 0.251 µM and 0.316 µM. As to `CN(C)CCC(NC(=O)c1ccc(-c2ccc3ccccc3c2)cc1)c1ccc(Cl)cc1` (centres unmarked) [CHEMBL572391], the 50% effective concentration (EC50) is 0.309 µM. `Cc1ccc(C(CCN(C)C)NC(=O)c2cccc(-c3ccccc3)c2)cc1` (centres unmarked) [CHEMBL572392]: the concentration for a half-maximal effect (EC50) is 0.813 µM. As to `Cc1ccc(C(CCN(C)C)NC(=O)c2ccc(-c3ccccc3)cc2)cc1` (centres unmarked) [CHEMBL572398], the EC50 is 0.2 µM. For the compound `CN(C)CCC(NC(=O)c1ccc(-c2ccc(Cl)cc2)cc1)c1ccc2ccccc2c1` (centres unmarked) [CHEMBL572439], the 50% effective concentration (EC50) was 0.0437 µM. Regarding `CO[C@@H](C(=O)N[C@@H](CCN(C)C)c1ccc2ccccc2c1)c1ccccc1` [CHEMBL572454], the concentration for a half-maximal effect (EC50) is 0.741 µM. Consider `O=C(NC(CCN1CCCCC1)c1ccc(Cl)cc1)c1ccc(-c2ccccc2)cc1` (centres unmarked) [CHEMBL572467], for which the half-maximal effective concentration (EC50) is 0.661 µM. With `CN(C)CCC(NC(=O)c1ccc(-c2ccc(Cl)cc2)cc1)c1ccc(Cl)cc1` (centres unmarked) [CHEMBL572882], the EC50 is 0.0759 µM. With `Cc1ccc(C(CCN(C)C)NC(=O)c2ccc(-c3ccc(Cl)cc3)cc2)cc1` (centres unmarked) [CHEMBL572883], the EC50 is 0.126 µM.

In the case of `CN(C)CC[C@H](NC(=O)c1ccc(-c2ccc(Cl)cc2)cc1)c1ccc2ccccc2c1` [CHEMBL573392], the EC50 is 0.0229 µM. On to `COc1ccc(-c2ccc(C(=O)NC(CCN(C)C)c3ccc(Cl)cc3)cc2)cc1` (centres unmarked) [CHEMBL573569], for which the 50% effective concentration (EC50) was 0.0741 µM. Regarding `COc1ccc(-c2cccc(C(=O)NC(CCN(C)C)c3ccc4ccccc4c3)c2)cc1` (centres unmarked) [CHEMBL573574], the concentration for a half-maximal effect (EC50) is 0.646 µM.

On to `CN(C)CCC(NC(=O)c1cccc(-c2ccc3ccccc3c2)c1)c1ccc(Cl)cc1` (centres unmarked) [CHEMBL573575], for which the half-maximal effective concentration (EC50) was 0.363 µM. For `CN(C)CC[C@@H](NC(=O)c1ccc(-c2ccc(Cl)cc2)cc1)c1ccc2ccccc2c1` [CHEMBL573640], the EC50 is 0.457 µM. As to `CN(C)CCC(NC(=O)c1ccc(-c2ccccc2)cc1)c1ccc2ccccc2c1` (centres unmarked) [CHEMBL574527], the EC50 was 0.12 µM. As for `Cc1ccc(C(CCN(C)C)NC(=O)c2cccc(-c3ccc(Cl)cc3)c2)cc1` (centres unmarked) [CHEMBL574731], the EC50 was 0.646 µM. Consider `COc1ccc(-c2ccc(C(=O)NC(CCN(C)C)c3ccc(C)cc3)cc2)cc1` (centres unmarked) [CHEMBL575629], for which the EC50 was 0.347 µM.

With `Cc1ccc(C(CCN(C)C)NC(=O)c2ccc(-c3ccc4ccccc4c3)cc2)cc1` (centres unmarked) [CHEMBL575630], the EC50 was 0.813 µM.

For the compound `CN(C)CCC(NC(=O)c1cccc(-c2ccccc2)c1)c1ccc2ccccc2c1` (centres unmarked) [CHEMBL575819], the concentration for a half-maximal effect (EC50) is 0.537 µM. Consider `CN(C)CCCC(NC(=O)c1ccc(-c2ccccc2)cc1)c1ccc(Cl)cc1` (centres unmarked) [CHEMBL576746], for which the concentration giving a half-maximal response (EC50) is 0.316 µM.
